Test [1] concerns the target intracellular GCN2 (phosphorylation of the GCN2 substrate eIF2α) (Homo sapiens, UniProt Q9P2K8). In words: GCN2 cellular inhibition assay (AlphaScreen SureFire P-eIF2α Ser51, borrelidin-treated U2OS cells). The format is cell-based. Conditions: compounds of Formula II; biomarker assay, phosphorylated eIF2α Ser51 in borrelidin-treated U2OS cells. Put shortly: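 U2OS, overnight attach; cpd 4-fold serial dil. from 40 μM final; borrelidin 10 μM, 1 h 37 °C/5% CO2; lyse; AlphaScreen P-eIF2α Ser51 (acceptor 2 h, donor overnight, RT, dark); % inhib. vs borrelidin-only.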
On the technique in general: In Alpha technology, singlet oxygen from a donor bead excites a nearby acceptor bead.

The next test addresses GCN2 kinase (Homo sapiens, UniProt Q9P2K8). The test is described as follows: GCN2 enzyme inhibition assay (Transcreener ADP2 fluorescence polarization). The format is biochemical. The settings on record: compounds of Formula II; 280 μM ATP, 4 nM GCN2 kinase. In a few lines:
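Human GCN2 (4 nM) preincubated 10 min with compound (0–8 μM) and 200 μM (RS)7 peptide in Tris-HCl pH 7.5, NaCl, MgCl2, DTT. Reaction started with 280 μM ATP, run 1 h at 25 °C. ADP detected by Transcreener fluorescence polarization. IC50 and Ki(app) fitted by tight-binding algorithm.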
(In general: In fluorescence polarisation assays a small probe gives low polarisation when free and higher when bound to something large.)

Where only a bound is given, the exact number is not on record here.

Chain of GCN2 kinase (Q9P2K8 whole entry): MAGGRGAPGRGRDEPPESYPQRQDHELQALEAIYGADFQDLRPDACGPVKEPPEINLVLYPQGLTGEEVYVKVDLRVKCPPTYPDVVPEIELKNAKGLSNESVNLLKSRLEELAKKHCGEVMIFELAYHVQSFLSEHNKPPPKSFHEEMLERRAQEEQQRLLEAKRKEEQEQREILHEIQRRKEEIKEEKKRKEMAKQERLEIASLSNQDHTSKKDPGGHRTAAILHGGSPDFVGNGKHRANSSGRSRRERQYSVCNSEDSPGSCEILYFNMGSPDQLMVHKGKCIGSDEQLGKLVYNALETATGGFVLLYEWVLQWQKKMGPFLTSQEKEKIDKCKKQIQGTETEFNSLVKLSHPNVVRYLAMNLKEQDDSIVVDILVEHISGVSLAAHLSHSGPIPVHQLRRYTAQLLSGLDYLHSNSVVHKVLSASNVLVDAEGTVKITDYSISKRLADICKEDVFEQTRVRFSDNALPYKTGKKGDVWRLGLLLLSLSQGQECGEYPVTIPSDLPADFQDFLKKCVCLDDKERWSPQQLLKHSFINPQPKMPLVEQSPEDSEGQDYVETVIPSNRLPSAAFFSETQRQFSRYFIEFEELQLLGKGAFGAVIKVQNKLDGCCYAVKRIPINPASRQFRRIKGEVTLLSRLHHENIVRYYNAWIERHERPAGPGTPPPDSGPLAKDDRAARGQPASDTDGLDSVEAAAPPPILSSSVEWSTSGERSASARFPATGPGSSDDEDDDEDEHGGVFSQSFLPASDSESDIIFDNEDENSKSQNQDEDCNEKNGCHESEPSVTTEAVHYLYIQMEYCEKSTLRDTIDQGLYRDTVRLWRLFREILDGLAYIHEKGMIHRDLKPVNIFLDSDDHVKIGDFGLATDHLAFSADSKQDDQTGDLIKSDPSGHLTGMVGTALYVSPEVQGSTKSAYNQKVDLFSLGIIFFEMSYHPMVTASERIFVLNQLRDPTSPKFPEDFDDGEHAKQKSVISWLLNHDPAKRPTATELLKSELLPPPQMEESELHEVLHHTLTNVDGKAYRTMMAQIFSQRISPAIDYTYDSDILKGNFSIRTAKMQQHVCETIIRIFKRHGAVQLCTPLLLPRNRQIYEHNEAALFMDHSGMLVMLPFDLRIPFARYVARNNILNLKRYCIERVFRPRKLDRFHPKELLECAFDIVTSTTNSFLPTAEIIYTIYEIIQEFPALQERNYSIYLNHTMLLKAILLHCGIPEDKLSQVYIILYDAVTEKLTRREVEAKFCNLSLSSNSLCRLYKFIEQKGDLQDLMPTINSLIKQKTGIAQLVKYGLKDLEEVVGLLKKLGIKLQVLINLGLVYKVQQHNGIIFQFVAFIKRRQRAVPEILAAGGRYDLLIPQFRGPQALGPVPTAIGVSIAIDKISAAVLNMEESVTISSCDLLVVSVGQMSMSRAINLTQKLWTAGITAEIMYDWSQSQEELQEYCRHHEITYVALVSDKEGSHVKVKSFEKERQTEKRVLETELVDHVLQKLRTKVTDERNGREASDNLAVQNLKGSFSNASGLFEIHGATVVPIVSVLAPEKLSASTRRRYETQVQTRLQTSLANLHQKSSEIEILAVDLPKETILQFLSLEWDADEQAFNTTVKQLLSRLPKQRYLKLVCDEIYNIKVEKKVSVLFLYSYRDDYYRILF
Chain of intracellular GCN2 (phosphorylation of the GCN2 substrate eIF2α) (Q9P2K8 whole entry): as above

A word on the IC50: it is the concentration at which inhibition is half-maximal. High values mean a need for much substance, low ones inhibition by little substance. What is called Ki is the equilibrium dissociation constant of an inhibitor or competing ligand from its target. Higher therefore signals weaker binding. `CC1CN(c2cc(-c3cnc4ccc(C(F)F)nn34)ncn2)CC(CNS(C)(=O)=O)C12OCCO2` (centres unmarked) [II-527, N-((8-(6-(6-(Difluoromethyl)imidazo[1,2-b]pyridazin-3-yl)pyrimidin-4-yl)-10-methyl-1,4-dioxa-8-azaspiro[4.5]decan-6-yl)methyl)methanesulfonamide]: in test [1], the IC50 was less than 500 nM. At GCN2 kinase, this compound gave a Ki of less than 10 nM.

`CS(=O)(=O)NCC1CN(c2cc(-c3cnc4ccc(C(F)F)nn34)ncn2)CC2(CC2)C1(F)F` (centres unmarked) [II-528, N-((5-(6-(6-(Difluoromethyl)imidazo[1,2-b]pyridazin-3-yl)pyrimidin-4-yl)-8,8-difluoro-5-azaspiro[2.5]octan-7-yl)methyl)methanesulfonamide]: the 50% inhibitory concentration (IC50) in test [1] is less than 500 nM. Also, on GCN2 kinase, the Ki is less than 10 nM.

In test [1], `CN1CCN(c2cc(-c3cnc4ccc(C(F)F)nn34)ncn2)CC12CN(S(N)(=O)=O)C2` [II-535, 8-(6-(6-(Difluoromethyl)imidazo[1,2-b]pyridazin-3-yl)pyrimidin-4-yl)-5-methyl-2,5,8-triazaspiro[3.5]nonane-2-sulfonamide] registered an IC50 of 500 to 5000 nM. The Ki on GCN2 kinase lay within 10 to 1000 nM.

In test [1], `CC1CN(c2cc(-c3cnc4ccc(C(F)F)nn34)ncn2)CC(CNS(C)(=O)=O)=C1F` (centres unmarked) [II-537, N-((1-(6-(6-(Difluoromethyl)imidazo[1,2-b]pyridazin-3-yl)pyrimidin-4-yl)-4-fluoro-5-methyl-1,2,5,6-tetrahydropyridin-3-yl)methyl)methanesulfonamide] registered a half-maximal inhibitory concentration (IC50) of less than 500 nM. This compound also gave an inhibition constant (Ki) on GCN2 kinase of less than 10 nM.

In the case of `CC1=C(F)C(CNS(C)(=O)=O)CN(c2cc(-c3cnc4ccc(C(F)F)nn34)ncn2)C1` (centres unmarked) [II-538, N-((1-(6-(6-(Difluoromethyl)imidazo[1,2-b]pyridazin-3-yl)pyrimidin-4-yl)-4-fluoro-5-methyl-1,2,3,6-tetrahydropyridin-3-yl)methyl)methanesulfonamide], the concentration for half-maximal inhibition (IC50) in test [1] was less than 500 nM. The same compound showed a Ki on GCN2 kinase of less than 10 nM.

Turning to `CC1CC(CNS(C)(=O)=O)CN(c2cc(-c3cnc4ccc(C(F)F)nn34)ncn2)C1C` (centres unmarked) [II-544, N-((1-(6-(6-(Difluoromethyl)imidazo[1,2-b]pyridazin-3-yl)pyrimidin-4-yl)-5,6-dimethylpiperidin-3-yl)methyl)methanesulfonamide], the half-maximal inhibitory concentration (IC50) in test [1] was less than 500 nM. In addition, the inhibition constant (Ki) at GCN2 kinase was less than 10 nM.

`CC1C2COC(=O)N2CCN1c1cc(-c2cnc3ccc(C(F)F)nn23)ncn1` (centres unmarked) [II-547, 7-(6-(6-(Difluoromethyl)imidazo[1,2-b]pyridazin-3-yl)pyrimidin-4-yl)-8-methylhexahydro-3H-oxazolo[3,4-a]pyrazin-3-one] yielded a 50% inhibitory concentration (IC50) in test [1] of 500 to 5000 nM. For the same compound, the Ki on GCN2 kinase was in the range of 10 to 1000 nM.

In turn, `CC1NCCN(c2cc(-c3cnc4ccc(C(F)F)nn34)ncn2)C1C` (centres unmarked) [II-548, 6-(Difluoromethyl)-3-(6-(2,3-dimethylpiperazin-1-yl)pyrimidin-4-yl)imidazo[1,2-b]pyridazine] displayed an IC50 in test [1] greater than 5000 nM. At GCN2 kinase, this compound had a Ki greater than 1000 nM.

As to `CC1C(NS(C)(=O)=O)CCCN1c1cc(-c2cnc3ccc(C(F)F)nn23)ncn1` (centres unmarked) [II-602, N-(1-(6-(6-(Difluoromethyl)imidazo[1,2-b]pyridazin-3-yl)pyrimidin-4-yl)-2-methylpiperidin-3-yl)methanesulfonamide], the half-maximal inhibitory concentration (IC50) in test [1] is less than 500 nM. This compound also registered an inhibition constant (Ki) at GCN2 kinase of less than 10 nM.

Turning to `C[C@@H]1C[C@H](CS(C)(=N)=O)[C@H](C)N(c2cc(-c3cnc4ccc(C(F)F)nn34)ncn2)C1` (stereo partly drawn) [II-607, (((2S,3S,5R)-1-(6-(6-(Difluoromethyl)imidazo[1,2-b]pyridazin-3-yl)pyrimidin-4-yl)-2,5-dimethylpiperidin-3-yl)methyl)(imino)(methyl)-λ^6-sulfanone], the half-inhibitory concentration (IC50) in test [1] is less than 500 nM. At GCN2 kinase, the Ki is less than 10 nM.

`CC1C(CNS(C)(=O)=O)C(C)(O)C(C)CN1c1cc(-c2cnc3ccc(C(F)F)nn23)ncn1` (centres unmarked) [II-618, N-((1-(6-(6-(Difluoromethyl)imidazo[1,2-b]pyridazin-3-yl)pyrimidin-4-yl)-4-hydroxy-2,4,5-trimethylpiperidin-3-yl)methyl)methanesulfonamide]: the half-maximal inhibitory concentration (IC50) in test [1] was less than 500 nM. Also, the Ki on GCN2 kinase is less than 10 nM.

In the case of `N=S1(=O)CCN(c2cc(-c3cnc4ccc(C(F)F)nn34)ncn2)CC1` [II-676, 4-[6-[6-(Difluoromethyl)imidazo[1,2-b]pyridazin-3-yl]pyrimidin-4-yl]-1-imino-1,4-thiazinane 1-oxide], the IC50 in test [1] was greater than 5000 nM. At GCN2 kinase, the Ki was 10 to 1000 nM.

`CS(=O)(=O)NCC1CCCN(c2cc(-c3cnc4ccc(C#N)nn34)ncn2)C1` (centres unmarked) [II-692, N-[[1-[6-(6-Cyanoimidazo[1,2-b]pyridazin-3-yl)pyrimidin-4-yl]-3-piperidyl]methyl]methanesulfonamide] gave an IC50 in test [1] of 500 to 5000 nM. The compound further returned a Ki at GCN2 kinase of 10 to 1000 nM.

`CC1CN(c2cc(-c3cnc4ccc(C#N)nn34)ncn2)C(C)C(c2cn[nH]c2)N1` (centres unmarked) [II-693] had an IC50 in test [1] of 500 to 5000 nM. This compound registered a Ki at GCN2 kinase of 10 to 1000 nM.

In the case of `CS(C)(=O)=NC1CC(C(F)(F)F)CN(c2cc(-c3cnc4ccc(C(F)F)nn34)ncn2)C1` (centres unmarked) [II-695, ((1-(6-(6-(Difluoromethyl)imidazo[1,2-b]pyridazin-3-yl)pyrimidin-4-yl)-5-(trifluoromethyl)piperidin-3-yl)imino)dimethyl-λ^6-sulfanone], the IC50 in test [1] is 500 to 5000 nM. Moreover, at GCN2 kinase, the inhibition constant Ki is less than 10 nM.

For `CC1CCC(N=S(C)(C)=O)CN1c1cc(-c2cnc3ccc(C(F)F)nn23)ncn1` (centres unmarked) [II-696, [1-[6-[6-(Difluoromethyl)imidazo[1,2-b]pyridazin-3-yl]pyrimidin-4-yl]-6-methyl-3-piperidyl]imino-dimethyl-λ^6-sulfanone], the half-maximal inhibitory concentration (IC50) in test [1] is greater than 5000 nM. For the same compound, the Ki at GCN2 kinase is 10 to 1000 nM.

In test [1], `CC1CN(c2cc(-c3cnc4ccc(C(F)(F)F)nn34)ncn2)C(C)C(c2cn[nH]c2)N1` (centres unmarked) [II-698] yielded a concentration for half-maximal inhibition (IC50) of 500 to 5000 nM. The compound also gave a Ki at GCN2 kinase of less than 10 nM.

`N#Cc1ccc2ncc(-c3cc(N4CCN5C(=O)CCCC5C4)ncn3)n2n1` (centres unmarked) [II-699, 3-(6-(6-Oxooctahydro-2H-pyrido[1,2-a]pyrazin-2-yl)pyrimidin-4-yl)imidazo[1,2-b]pyridazine-6-carbonitrile] registered a half-maximal inhibitory concentration (IC50) in test [1] greater than 5000 nM. At GCN2 kinase, this compound yielded a Ki of 10 to 1000 nM.

In test [1], `CS(C)(=O)=NC1CCCN(c2cc(-c3cnc4ccc(C(F)F)nn34)ncn2)C1C(F)F` (centres unmarked) [II-700, [2-(Difluoromethyl)-1-[6-[6-(difluoromethyl)imidazo[1,2-b]pyridazin-3-yl]pyrimidin-4-yl]-3-piperidyl]imino-dimethyl-λ^6-sulfanone] displayed a concentration for half-maximal inhibition (IC50) of less than 500 nM. At GCN2 kinase, the Ki is less than 10 nM.

On to `CS(C)(=O)=NC1CCCN(c2cc(-c3cnc4ccc(C(F)F)nn34)ncn2)C1C(F)F` (centres unmarked) [II-701, [2-(Difluoromethyl)-1-[6-[6-(difluoromethyl)imidazo[1,2-b]pyridazin-3-yl]pyrimidin-4-yl]-3-piperidyl]imino-dimethyl-λ^6-sulfanone], for which the IC50 in test [1] was greater than 5000 nM. The compound further had a Ki at GCN2 kinase of 10 to 1000 nM.

The compound `CC1CN(c2cc(-c3cnc4ccc(C(F)(F)F)nn34)ncn2)C(C)C(c2cn[nH]c2)N1` (centres unmarked) [II-704, 3-(6-(2,5-Dimethyl-3-(1H-pyrazol-4-yl)piperazin-1-yl)pyrimidin-4-yl)-6-(trifluoromethyl)imidazo[1,2-b]pyridazine] came in with a half-maximal inhibitory concentration (IC50) in test [1] greater than 5000 nM. The Ki at GCN2 kinase is 10 to 1000 nM.

Compound `CC1CN(c2cc(-c3cnc4ccc(C(F)(F)F)nn34)ncn2)C(C)C(c2cn[nH]c2)N1` (centres unmarked) [II-705, 3-(6-(2,5-Dimethyl-3-(1H-pyrazol-4-yl)piperazin-1-yl)pyrimidin-4-yl)-6-(trifluoromethyl)imidazo[1,2-b]pyridazine] showed an IC50 in test [1] of less than 500 nM. For the same compound, the inhibition constant Ki on GCN2 kinase was less than 10 nM.

Turning to `CC1C(c2cn[nH]c2)NCCN1c1cc(-c2cnc3ccc(C(F)(F)F)nn23)ncn1` (centres unmarked) [II-706, 3-(6-(2-Methyl-3-(1H-pyrazol-4-yl)piperazin-1-yl)pyrimidin-4-yl)-6-(trifluoromethyl)imidazo[1,2-b]pyridazine], the half-maximal inhibitory concentration (IC50) in test [1] lay within 500 to 5000 nM. This compound displayed an inhibition constant Ki on GCN2 kinase of 10 to 1000 nM.

`CC1NCCN(c2cc(-c3cnc4ccc(C(F)(F)F)nn34)ncn2)C1c1cn[nH]c1` (centres unmarked) [II-707, 3-(6-(3-Methyl-2-(1H-pyrazol-4-yl)piperazin-1-yl)pyrimidin-4-yl)-6-(trifluoromethyl)imidazo[1,2-b]pyridazine] gave a half-maximal inhibitory concentration (IC50) in test [1] greater than 5000 nM. The Ki at GCN2 kinase was in the range of 10 to 1000 nM.

For the compound `FC(F)c1ccc2ncc(-c3cc(-c4cnn(C5CCOCC5)c4)ncn3)n2n1` [II-709, 6-(Difluoromethyl)-3-[6-(1-tetrahydropyran-4-ylpyrazol-4-yl)pyrimidin-4-yl]imidazo[1,2-b]pyridazine], in test [1], the half-maximal inhibitory concentration (IC50) was 500 to 5000 nM. At GCN2 kinase, this compound returned a Ki of 10 to 1000 nM.

As for `CC1CC(P(C)(C)=O)CN(c2cc(-c3cnc4ccc(C(F)F)nn34)ncn2)C1` (centres unmarked) [II-710, 6-(Difluoromethyl)-3-[6-(3-dimethylphosphoryl-5-methyl-1-piperidyl)pyrimidin-4-yl]imidazo[1,2-b]pyridazine], the half-inhibitory concentration (IC50) in test [1] fell in the range of 500 to 5000 nM. In addition, on GCN2 kinase, the Ki was 10 to 1000 nM.

In turn, `CC1CC(P(C)(C)=O)CN(c2cc(-c3cnc4ccc(C(F)F)nn34)ncn2)C1` (centres unmarked) [II-711, 6-(Difluoromethyl)-3-[6-(3-dimethylphosphoryl-5-methyl-1-piperidyl)pyrimidin-4-yl]imidazo[1,2-b]pyridazine] registered an IC50 in test [1] of 500 to 5000 nM. The inhibition constant Ki at GCN2 kinase fell in the range of 10 to 1000 nM.

Compound `FC(F)(F)c1ccc2ncc(-c3cc(N4CCCC(c5c[nH]cn5)C4)ncn3)n2n1` (centres unmarked) [II-715] had a half-maximal inhibitory concentration (IC50) in test [1] of 500 to 5000 nM. Besides, on GCN2 kinase, the Ki lay within 10 to 1000 nM.

The values above are taken from patent publication US10988477B2 (Merck Patent GmbH, priority 2018, dated 2021).
